Data reported in patent US11976075B2, “Inhibitors of the MYST family of lysine acetyl transferases” (Isosterix, Inc., priority 2022, dated 2024).

Biological target: T1, Recombinant KAT6A/MOZ (488-778) protein (Homo sapiens, UniProt Q92794)
T1 construct: Recombinant KAT6A/MOZ (488-778) protein (Active motif, Catalog #81223); purchased Active Motif 81223
Assay: Kat6a AlphaLISA Inhibition Screening Assay
Assay type: biochemical
Conditions: 10′ pre-incubation; Table 2; read-out: Kat6A biochemical assay: IC50
Procedure, shortened: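 Recombinant KAT6A (488-778), 25 nM, was preincubated with compound (10-point dose response) for 60 or 10 min. It then reacted 120 min at room temperature with 200 nM biotin-H3(1-21) peptide and 400 nM acetyl-CoA, pH 8.0, with 330 nM TSA present. Acetylation was detected by AlphaLISA (anti-acetyl-lysine acceptor, streptavidin donor beads).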

T1 sequence (Q92794 488-778): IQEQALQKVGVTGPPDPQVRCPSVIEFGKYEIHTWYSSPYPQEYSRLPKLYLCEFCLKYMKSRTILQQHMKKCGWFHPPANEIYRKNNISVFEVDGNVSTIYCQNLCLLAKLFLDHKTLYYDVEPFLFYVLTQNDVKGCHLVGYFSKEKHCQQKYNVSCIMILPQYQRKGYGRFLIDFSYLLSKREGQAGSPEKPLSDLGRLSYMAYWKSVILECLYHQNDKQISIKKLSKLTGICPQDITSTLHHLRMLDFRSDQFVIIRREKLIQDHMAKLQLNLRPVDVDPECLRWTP

Row | Structure (SMILES) | IC50 [µM]
1 | C#CC(=O)NCc1ccnc(-c2cc(C)cc(C(=O)NNS(=O)(=O)c3ccccc3F)c2)c1 [compound 13] | ≤ 10
2 | C=CC(=O)NCc1ccc2cc(C(=O)NS(=O)(=O)c3ccccc3F)oc2c1 [Synthetic Example 10, 6-(acrylamidomethyl)-N-((2-fluorophenyl)sulfonyl)benzofuran-2-carboxamide] | ≤ 10

Same assay, conditions: 10′ pre-incubation; Table 3; read-out: Kat6A Biochemical assay: IC50

Row | Structure (SMILES) | IC50 [µM]
3 | COc1cc(Cn2cc(CN)cn2)cc2onc(NS(=O)(=O)CC3CCCCC3)c12 [compound 130] | ≤ 10
4 | COc1cccc(OC)c1S(=O)(=O)Nc1nn(C)c2cc(Cn3cccn3)cc(OC)c12 [compound 123, N-(6-((1H-pyrazol-1-yl)methyl)-4-methoxy-1-methyl-1H-indazol-3-yl)-2,6-dimethoxybenzenesulfonamide] | 10 to 20
5 | CCC(=O)NCc1ccn(Cc2cc(OC)c3c(NS(=O)(=O)CC4CCCCC4)noc3c2)n1 [compound 129] | ≤ 10
6 | COc1cc(Cn2cccn2)cc2[nH]nc(NS(=O)(=O)c3ccccc3F)c12 [compound 124, N-(6-((1H-pyrazol-1-yl)methyl)-4-methoxy-1H-indazol-3-yl)-2-fluorobenzenesulfonamide] | 20 to 50
7 | COc1cc(Cn2cccn2)cc2c1c(NS(=O)(=O)CC1CCCCC1)nn2C [compound 121, N-(6-((1H-pyrazol-1-yl)methyl)-4-methoxy-1-methyl-1H-indazol-3-yl)-1-cyclohexylmethanesulfonamide] | 10 to 20

Same assay, conditions: 60′ pre-incubation; Table 2; read-out: Kat6A biochemical assay: IC50

Row | Structure (SMILES) | IC50 [µM]
8 | C#CC(=O)NCc1cnn(Cc2cc(OC)c3c(NS(=O)(=O)c4ccc(C(=O)NC)cc4OC)noc3c2)c1 [Synthetic Example 46, 3-methoxy-4-(N-(4-methoxy-6-((4-(propiolamidomethyl)-1H-pyrazol-1-yl)methyl)benzo[d]isoxazol-3-yl)sulfamoyl)-N-methylbenzamide] | ≤ 10
9 | COc1cc(Cn2cc3c(n2)CN(C(=O)C#CCN(C)C)C3)cc2onc(NS(=O)(=O)CC3CCCCC3)c12 [Synthetic Example 3, 1-cyclohexyl-N-(6-((5-(4-(dimethylamino)but-2-ynoyl)-5,6-dihydropyrrolo[3,4-c]pyrazol-2(4H)-yl)methyl)-4-methoxybenzo[d]isoxazol-3-yl)methanesulfonamide] | ≤ 10
10 | C=CS(=O)(=O)NCc1ccn(Cc2cc(OC)c3c(NS(=O)(=O)c4ccccc4OC)noc3c2)n1 [Synthetic Example 22, 2-methoxy-N-(4-methoxy-6-((3-(vinylsulfonamidomethyl)-1H-pyrazol-1-yl)methyl)benzo[d]isoxazol-3-yl)benzenesulfonamide] | ≤ 10
11 | C#CC(=O)N(C)Cc1cnn(Cc2cc(OC)c3c(NS(=O)(=O)c4ccccc4OC)noc3c2)c1 [Synthetic Example 45, N-((1-((4-methoxy-3-((2-methoxyphenyl)sulfonamido)benzo[d]isoxazol-6-yl)methyl)-1H-pyrazol-4-yl)methyl)-N-methylpropiolamide] | ≤ 10
12 | C#CC(=O)NCc1cnn(Cc2cc(OC)c3c(NS(=O)(=O)c4cc(CC)ccc4OC)noc3c2)c1 [compound 69, N-((1-((3-((5-ethyl-2-methoxyphenyl)sulfonamido)-4-methoxybenzo[d]isoxazol-6-yl)methyl)-1H-pyrazol-4-yl)methyl) propiolamide] | ≤ 10
13 | COc1cc(Cn2cc3c(n2)CNC3)cc2onc(NS(=O)(=O)CC3CCCCC3)c12 [Synthetic Example 28B, 1-cyclohexyl-N-(6-((5,6-dihydropyrrolo[3,4-c]pyrazol-2(4H)-yl)methyl)-4-methoxybenzo[d]isoxazol-3-yl)methanesulfonamide] | 10 to 20
14 | C#CC(=O)NCc1cnn(Cc2cc(OC)c3c(NS(=O)(=O)CC4CCCCC4)noc3c2)c1 [compound 5] | ≤ 10
15 | COc1ccccc1S(=O)(=O)Nc1noc2cc(CN3CCC(C(=O)NCC#N)C3)cc(OC)c12 (centres unmarked) [Synthetic Example 67, N-(cyanomethyl)-1-((4-methoxy-3-((2-methoxyphenyl)sulfonamido)benzo[d]isoxazol-6-yl)methyl) pyrrolidine-3-carboxamide] | > 10
16 | C#CC(=O)NCc1cnn(Cc2cc(OC)c3c(NS(=O)(=O)c4cccc(C(=O)NC)c4)noc3c2)c1 [Synthetic Example 52, 3-(N-(4-methoxy-6-((4-(propiolamidomethyl)-1H-pyrazol-1-yl)methyl)benzo[d]isoxazol-3-yl)sulfonyl)-N-methylbenzamide] | ≤ 10
17 | C#CC(=O)N1CCN(c2cccc(-c3cc(OC)c4c(NS(=O)(=O)c5c(OC)cccc5OC)noc4c3)c2)CC1 [compound 71, 2,6-dimethoxy-N-(4-methoxy-6-(3-(4-propioloylpiperazin-1-yl)phenyl)benzo[d]isoxazol-3-yl) benzenesulfonamide] | ≤ 10
18 | COc1cc(Cn2ncc3c2CNC3)cc2onc(NS(=O)(=O)CC3CCCCC3)c12 [Synthetic Example 28A, 1-cyclohexyl-N-(6-((5,6-dihydropyrrolo[3,4-c]pyrazol-1(4H)-yl)methyl)-4-methoxybenzo[d]isoxazol-3-yl)methanesulfonamide] | ≤ 10
19 | C#CC(=O)NCc1ccnc(-c2cc(C)cc(C(=O)NNS(=O)(=O)c3c(OC)cccc3OC)c2)c1 [Synthetic Example 16, N-((2-(3-(2-((2,6-dimethoxyphenyl)sulfonyl)hydrazine-1-carbonyl)-5-methylphenyl)pyridin-4-yl)methyl)propiolamide] | ≤ 10
20 | COc1ccccc1S(=O)(=O)Nc1noc2cc(Cn3cc(CNC(=O)C#CCO)cn3)cc(OC)c12 [Synthetic Example 53, 4-hydroxy-N-((1-((4-methoxy-3-((2-methoxyphenyl)sulfonamido)benzo[d]isoxazol-6-yl)methyl)-1H-pyrazol-4-yl)methyl) but-2-ynamide] | ≤ 10
21 | C#CC(=O)NCc1cnn(Cc2cc(OC)c3c(NS(=O)(=O)c4c(OC)cccc4OC)noc3c2)c1 [Synthetic Example 34, N-((1-((3-((2,6-dimethoxyphenyl)sulfonamido)-4-methoxybenzo[d]isoxazol-6-yl)methyl)-1H-pyrazol-4-yl)methyl)propiolamide] | ≤ 10
22 | C#CC(=O)NC1CCN(Cc2cc(OC)c3c(NS(=O)(=O)c4ccccc4OC)noc3c2)CC1 [Synthetic Example 64] | ≤ 10

Same assay, conditions: 60′ pre-incubation; Table 3; read-out: Kat6A Biochemical assay: IC50

Row | Structure (SMILES) | IC50 [µM]
23 | C=CS(=O)(=O)N1CCN(c2cccc(-c3cc(OC)c4c(NS(=O)(=O)c5c(OC)cccc5OC)noc4c3)c2)CC1 [compound 72, 2,6-dimethoxy-N-(4-methoxy-6-(3-(4-(vinylsulfonyl)piperazin-1-yl)phenyl)benzo[d]isoxazol-3-yl) benzenesulfonamide] | ≤ 10
24 | C=CS(=O)(=O)NCC(=O)NCc1cnn(Cc2cc(OC)c3c(NS(=O)(=O)c4cc(CC)ccc4OC)noc3c2)c1 [compound 93, N-((1-((3-((5-ethyl-2-methoxyphenyl)sulfonamido)-4-methoxybenzo[d]isoxazol-6-yl)methyl)-1H-pyrazol-4-yl)methyl)-2-(vinylsulfonamido) acetamide] | ≤ 10
25 | COc1cccc(OC)c1S(=O)(=O)Nc1noc2cc(-c3cccc(N4CCN(C(=O)CCl)CC4)c3)cc(OC)c12 [compound 73, N-(6-(3-(4-(2-chloroacetyl)piperazin-1-yl)phenyl)-4-methoxybenzo[d]isoxazol-3-yl)-2,6-dimethoxybenzenesulfonamide] | ≤ 10
26 | C#CC(=O)NCc1cnn(Cc2cc(OC)c3c(NS(=O)(=O)c4cc(C(=O)NC)ccc4OC)noc3c2)c1 [compound 85, 4-methoxy-3-(N-(4-methoxy-6-((4-(propiolamidomethyl)-1H-pyrazol-1-yl)methyl)benzo[d]isoxazol-3-yl)sulfamoyl)-N-methylbenzamide] | ≤ 10
27 | C#CC(=O)NCc1cnn(Cc2cc(OC)c3c(NS(=O)(=O)c4cc(C(=O)O)ccc4OC)noc3c2)c1 [compound 86, 4-methoxy-3-(N-(4-methoxy-6-((4-(propiolamidomethyl)-1H-pyrazol-1-yl)methyl)benzo[d]isoxazol-3-yl)sulfamoyl)benzoic acid] | > 10
28 | C#CC(=O)N1CCC(c2cccc(-c3cc(OC)c4c(NS(=O)(=O)c5c(OC)cccc5OC)noc4c3)c2)CC1 [compound 101, 2,6-dimethoxy-N-(4-methoxy-6-(3-(1-propioloylpiperidin-4-yl)phenyl)benzo[d]isoxazol-3-yl) benzenesulfonamide] | ≤ 10
29 | COc1ccccc1S(=O)(=O)Nc1noc2cc(Cn3cc(CNS(=O)(=O)c4cccnc4Cl)cn3)cc(OC)c12 [compound 84, 2-chloro-N-((1((4methoxy3((2methoxyphenyl)sulfonamido)benzo[d]isoxazol-6-yl)methyl)-1H-pyrazol-4-yl)methyl) pyridine-3-sulfonamide] | ≤ 10
30 | C#CC(=O)N1CCC(c2cccc(-c3cc(OC)c4c(NS(=O)(=O)c5c(OC)cccc5OC)noc4c3)c2)C1 (centres unmarked) [compound 87, 2,6-dimethoxy-N-(4-methoxy-6-(3-(1-propioloylpyrrolidin-3-yl)phenyl)benzo[d]isoxazol-3-yl)benzenesulfonamide] | ≤ 10
31 | C#CC(=O)N1CCN(c2cccc(-c3cc(OC)c4c(NS(=O)(=O)N(C)C5CCCCC5)noc4c3)c2)CC1 [compound 112, 3-[[cyclohexyl(methyl)sulfamoyl]amino]-4-methoxy-6-[3-(4-prop-2-ynoylpiperazin-1-yl)phenyl]-1,2-benzoxazole] | ≤ 10
32 | COc1ccccc1S(=O)(=O)Nc1noc2cc(Cn3cc(CNS(=O)(=O)c4ccc(F)cc4)cn3)cc(OC)c12 [compound 78, N-(6-((4-(((4-fluorophenyl)sulfonamido)methyl)-1H-pyrazol-1-yl)methyl)-4-methoxybenzo[d]isoxazol-3-yl)-2-methoxybenzenesulfonamide] | ≤ 10
